According to patent US9918990B2, “Substituted pyrrolo[2,3-c]pyridines and pyrazolo[3,4-c]pyridines as BET protein inhibitors” (Incyte Corporation, priority 2013, dated 2018):
Structures can show the parent of a compound that is named as a salt.

Tests used:
[1] = test system: KMS.12.BM cells; assay: KMS.12.BM cell viability assay (Cell Titer-GLO, ATP quantitation); assay type: cell-based; conditions: Homo sapiens, 72 h, 3 days, concentration required for 50% cell death, read-out: KMS cellular IC50
How it was run: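 Human myeloma KMS.12.BM cells, 5000 cells/well in RPMI with 10% FBS, were exposed to a compound concentration range for 3 days. Viability was read by Cell Titer-GLO ATP luminescence relative to untreated cells; IC50 is the concentration giving 50% cell death.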

[2] = biological target: BRD4-BD1 (Homo sapiens (Human), UniProt O60885); assay: BRD4 AlphaScreen assay, BRD4-BD1; assay type: binding; conditions: H4Ac4 peptide, 75 min, room temperature, read-out: BRD4 BD-1 enzyme IC50
How it was run: (§1)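 AlphaScreen read after 75 min dark incubation at room temperature, inhibitors serially diluted in DMSO and added before other components. IC50 from fit of percent control activity versus log inhibitor concentration.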

[3] = test system: C-myc; assay: KMS.12.BM C-myc ELISA assay; assay type: cell-based; conditions: Homo sapiens; KMS.12.BM cells, 2 hours, concentration required for 50% C-myc inhibition
How it was run: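 Human myeloma KMS.12.BM cells in RPMI/10% FBS were exposed to a compound concentration range for 2 h, then lysed with protease inhibitors. C-myc in clarified lysates was measured by ELISA. IC50 is the concentration giving 50% C-myc inhibition relative to untreated cells.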

[4] = biological target: BRD4-BD2 (Homo sapiens (Human), UniProt O60885); assay: BRD4 AlphaScreen assay, BRD4-BD2; assay type: binding; conditions: H4Ac4 peptide, 75 min, room temperature, read-out: BRD4 BD-2 enzyme IC50
How it was run: as §1

| IC50 [2] [nM] | IC50 [3] [nM] | IC50 [4] [nM] | Compound | IC50 [1] [nM] |
| --- | --- | --- | --- | --- |
| < 100 | ≤ 1000 | < 100 | Cn1cc(-c2ccc3oc(CNS(C)(=O)=O)nc3c2Oc2ccccc2)c2cc[nH]c2c1=O [Example 105, N-{[5-(6-Methyl-7-oxo-6,7-dihydro-1H-pyrrolo[2,3-c]pyridin-4-yl)-4-phenoxy-1,3-benzoxazol-2-yl]methyl}methanesulfonamide] | ≤ 1000 |
| < 100 | ≤ 1000 | < 100 | Cn1cc(-c2ccc3[nH]cnc3c2Oc2ccc(F)cc2F)c2cc[nH]c2c1=O [Example 2, 4-[4-(2,4-Difluorophenoxy)-1H-benzimidazol-5-yl]-6-methyl-1,6-dihydro-7H-pyrrolo[2,3-c]pyridin-7-one trifluoroacetate] | ≤ 1000 |
| < 100 | ≤ 1000 | < 100 | Cn1cc(-c2ccc3[nH]c(=O)[nH]c3c2Oc2cccc(F)c2)c2cc[nH]c2c1=O [Example 25, 4-(3-Fluorophenoxy)-5-(6-methyl-7-oxo-6,7-dihydro-1H-pyrrolo[2,3-c]pyridin-4-yl)-1,3-dihydro-2H-benzimidazol-2-one] | ≤ 1000 |
| < 100 | ≤ 1000 | < 100 | Cn1cc(-c2ccc3c([nH]c(=O)n3C)c2OC2CCCOC2)c2cc[nH]c2c1=O (centres unmarked) [Example 91, 1-Methyl-5-(6-methyl-7-oxo-6,7-dihydro-1H-pyrrolo[2,3-c]pyridin-4-yl)-4-(tetrahydro-2H-pyran-3-yloxy)-1,3-dihydro-2H-benzimidazol-2-one] | ≤ 1000 |
| < 100 | ≤ 1000 | < 100 | Cn1cc(-c2ccc3c([nH]c(=O)n3C)c2OCC2CCCC2)c2cc[nH]c2c1=O [Example 92, 4-(Cyclopentylmethoxy)-1-methyl-5-(6-methyl-7-oxo-6,7-dihydro-1H-pyrrolo[2,3-c]pyridin-4-yl)-1,3-dihydro-2H-benzimidazol-2-one] | ≤ 1000 |
| < 100 | ≤ 1000 | < 100 | Cn1cc(-c2ccc3c([nH]c(=O)n3C)c2OC2CCC2)c2cc[nH]c2c1=O [Example 89, 4-(Cyclobutyloxy)-1-methyl-5-(6-methyl-7-oxo-6,7-dihydro-1H-pyrrolo[2,3-c]pyridin-4-yl)-1,3-dihydro-2H-benzimidazol-2-one] | ≤ 1000 |
| < 100 | ≤ 1000 | < 100 | Cc1nc2c(Oc3ccc(F)cc3F)c(-c3cn(C)c(=O)c4[nH]ncc34)ccc2[nH]1 [Example 15, 4-[4-(2,4-Difluorophenoxy)-2-methyl-1H-benzimidazol-5-yl]-6-methyl-1,6-dihydro-7H-pyrazolo[3,4-c]pyridin-7-one] | ≤ 1000 |
| < 100 | ≤ 1000 | < 100 | Cn1cc(-c2ccc3c([nH]c(=O)n3C)c2Oc2cccc(Cl)c2)c2cc[nH]c2c1=O [Example 87, 4-(3-Chlorophenoxy)-1-methyl-5-(6-methyl-7-oxo-6,7-dihydro-1H-pyrrolo[2,3-c]pyridin-4-yl)-1,3-dihydro-2H-benzimidazol-2-one] | ≤ 1000 |
| < 100 | ≤ 1000 | < 100 | Cn1cc(-c2ccc3c([nH]c(=O)n3CCN3CCOCC3)c2Oc2ccccc2)c2cc[nH]c2c1=O [Example 69, 5-(6-Methyl-7-oxo-6,7-dihydro-1H-pyrrolo[2,3-c]pyridin-4-yl)-1-(2-morpholin-4-ylethyl)-4-phenoxy-1,3-dihydro-2H-benzimidazol-2-one trifluoroacetate] | ≤ 1000 |
| < 100 | ≤ 1000 | < 100 | Cn1cc(-c2ccc3c([nH]c(=O)n3C)c2OC2CCCC2)c2cc[nH]c2c1=O [Example 93, 4-(Cyclopentyloxy)-1-methyl-5-(6-methyl-7-oxo-6,7-dihydro-1H-pyrrolo[2,3-c]pyridin-4-yl)-1,3-dihydro-2H-benzimidazol-2-one] | ≤ 1000 |
| < 100 | ≤ 1000 | < 100 | Cn1cc(-c2ccc3ncn(CCC#N)c3c2Oc2ccccc2)c2cc[nH]c2c1=O [Example 55, 3-[6-(6-Methyl-7-oxo-6,7-dihydro-1H-pyrrolo[2,3-c]pyridin-4-yl)-7-phenoxy-1H-benzimidazol-1-yl]propanenitrile] | ≤ 1000 |
| < 100 | ≤ 1000 | < 100 | CC(O)c1cc(-c2cn(C)c(=O)c3[nH]ncc23)c(Oc2ccc(F)cc2F)c2ncn(C)c12 (centres unmarked) [Example 78, 4-[4-(2,4-Difluorophenoxy)-7-(1-hydroxyethyl)-1-methyl-1H-benzimidazol-5-yl]-6-methyl-1,6-dihydro-7H-pyrazolo[3,4-c]pyridin-7-one] | ≤ 1000 |
| 100 to 1000 | ≤ 1000 | < 100 | COc1c(-c2cn(C)c(=O)c3[nH]ccc23)ccc2c1n(CCC#N)c(=O)n2C [Example 54, 3-[7-Methoxy-3-methyl-6-(6-methyl-7-oxo-6,7-dihydro-1H-pyrrolo[2,3-c]pyridin-4-yl)-2-oxo-2,3-dihydro-1H-benzimidazol-1-yl]propanenitrile] | ≤ 1000 |
| < 100 | ≤ 1000 | < 100 | Cn1cc(-c2ccc3ocnc3c2Oc2ccccc2)c2cc[nH]c2c1=O [Example 96, 6-Methyl-4-(4-phenoxy-1,3-benzoxazol-5-yl)-1,6-dihydro-7H-pyrrolo[2,3-c]pyridin-7-one] | ≤ 1000 |
| < 100 | ≤ 1000 | < 100 | Cn1cc(-c2ccc3c(c2OCC2CCC2)n(CCCC#N)c(=O)n3C)c2cc[nH]c2c1=O [Example 61, 4-[7-(Cyclobutylmethoxy)-3-methyl-6-(6-methyl-7-oxo-6,7-dihydro-1H-pyrrolo[2,3-c]pyridin-4-yl)-2-oxo-2,3-dihydro-1H-benzimidazol-1-yl]butanenitrile] | ≤ 1000 |
| < 100 | ≤ 1000 | < 100 | Cn1cc(-c2ccc3c(ncn3CCN3CCOCC3)c2Oc2ccc(F)cc2F)c2cn[nH]c2c1=O [Example 17, 4-[4-(2,4-Difluorophenoxy)-1-(2-morpholin-4-ylethyl)-1H-benzimidazol-5-yl]-6-methyl-1,6-dihydro-7H-pyrazolo[3,4-c]pyridin-7-one] | ≤ 1000 |
| < 100 | ≤ 1000 | < 100 | Cn1cc(-c2ccc3oc(CNC(=O)Cc4ccccc4)nc3c2Oc2ccccc2)c2cc[nH]c2c1=O [Example 107, N-{[5-(6-Methyl-7-oxo-6,7-dihydro-1H-pyrrolo[2,3-c]pyridin-4-yl)-4-phenoxy-1,3-benzoxazol-2-yl]methyl}-2-phenylacetamide] | ≤ 1000 |
| < 100 | ≤ 1000 | < 100 | Cc1nc2c(OCC3CC3)c(-c3cn(C)c(=O)c4[nH]ccc34)ccc2[nH]1 [Example 13, 4-[4-(Cyclopropylmethoxy)-2-methyl-1H-benzimidazol-5-yl]-6-methyl-1,6-dihydro-7H-pyrrolo[2,3-c]pyridin-7-one] | ≤ 1000 |
| < 100 | ≤ 1000 | < 100 | Cn1cc(-c2ccc3c(c2Oc2ccccc2)NC(=O)CO3)c2cc[nH]c2c1=O [Example 94, 6-(6-Methyl-7-oxo-6,7-dihydro-1H-pyrrolo[2,3-c]pyridin-4-yl)-5-phenoxy-2H-1,4-benzoxazin-3(4H)-one] | ≤ 1000 |
| < 100 | ≤ 1000 | < 100 | Cn1cc(-c2ccc3c([nH]c(=O)n3C)c2Oc2ccccc2)c2cc[nH]c2c1=O [Example 38, 1-Methyl-5-(6-methyl-7-oxo-6,7-dihydro-1H-pyrrolo[2,3-c]pyridin-4-yl)-4-phenoxy-1,3-dihydro-2H-benzimidazol-2-one] | ≤ 1000 |
| < 100 | ≤ 1000 | < 100 | Cn1cc(-c2ccc3c([nH]c(=O)n3C)c2Oc2cccc(F)c2)c2cc[nH]c2c1=O [Example 40, 4-(3-Fluorophenoxy)-1-methyl-5-(6-methyl-7-oxo-6,7-dihydro-1H-pyrrolo[2,3-c]pyridin-4-yl)-1,3-dihydro-2H-benzimidazol-2-one] | ≤ 1000 |

| Compound | IC50 [2] [nM] | IC50 [3] [nM] | IC50 [4] [nM] | IC50 [1] [nM] |
| --- | --- | --- | --- | --- |
| Cc1nc2c(Oc3ccc(F)cc3F)c(-c3cn(C)c(=O)c4[nH]ccc34)ccc2[nH]1 [Example 3, 4-[4-(2,4-Difluorophenoxy)-2-methyl-1H-benzimidazol-5-yl]-6-methyl-1,6-dihydro-7H-pyrrolo[2,3-c]pyridin-7-one trifluoroacetate] | < 100 | ≤ 1000 | < 100 | ≤ 1000 |
| C[C@@H]1CN(CCn2c(=O)[nH]c3c(Oc4ccccc4)c(-c4cn(C)c(=O)c5[nH]ccc45)ccc32)C[C@H](C)O1 [Example 70, 1-{2-[(2R,6S)-2,6-Dimethylmorpholin-4-yl]ethyl}-5-(6-methyl-7-oxo-6,7-dihydro-1H-pyrrolo[2,3-c]pyridin-4-yl)-4-phenoxy-1,3-dihydro-2H-benzimidazol-2-one trifluoroacetate] | < 100 | ≤ 1000 | < 100 | ≤ 1000 |
